This passage reports IC50 results from US20230265083A1, “Heterocycle CDK Inhibitors And Their Use Thereof” (Prelude Therapeutics Incorporated, priority 2020, published 2023).

Assay [1] deals with T1, CDK9/Cyclin T1 (Homo sapiens, UniProt P50750).
T1 construct: purchased ProQinase; host or cells: insect cell
Briefly: CDK9/CyclinT1 Enzymatic Activity Assay (TR-FRET). It counts as biochemical. The note with it: ATP 1 mM, recombinant CDK9/Cyclin T1 1 nM, read-out: CDK9_T1 IC50. As for the experimental part: CDK9/CyclinT1 Enzymatic Activity Assay
(§1) The inhibitory activity of compounds was evaluated in vitro using TR-FRET assay with white 384-well low volume microplate (Greiner Bio-One). CDK9/Cyclin T1 catalyzed phosphorylation of peptides in the presence and absence of compounds was measured and used in IC50 determination. Recombinant protein complex CDK9/Cyclin T1, expressed from insect cell, was purchased from ProQinase. Testing compounds were dissolved in DMSO at 1 mM and tested in 9-dose IC50 mode. The reaction mixture was prepared by mixing CDK9/CyclinT1 (1 nM final), ULight-4E-BP1 (50 nM final, Perkinelmer, TRF0128-D), and ATP (1 mM final) in assay buffer (20 mM of HEPES pH 7.4, 1 mM of EGTA, 0.05% BSA, 0.005% Tween 20, and 1 mM TCEP). The compound of interest in DMSO was added to each well in 3-fold serial dilution by the dispenser (TECAN D300E) to make a 9.9 μL of the reaction mixture. After 20 minutes of preincubation at room temperature, 0.1 μL MgCl2 (10 mM final) was added to initiate the reaction. Following a 45 minutes incubation at 37° C., the reaction was stopped by the addition of 2 μL of quenching buffer consisting of Lance detection buffer (Perkinelmer CR97-100C), LANCE Ultra Europium-anti-P-4E-BP1 (Perkinelmer, TRF0216-D), EDTA, and incubate at room temperature for additional 60 minutes in the dark. The reaction signal was measured by Envision multimode plate reader (PerkinElmer, 2102-0010). IC50 values were determined by fitting the data to the standard 4 parameters with Hill Slope using GraphPad Prism software.
In general terms: Time-resolved FRET reads energy transfer from a long-lived donor to a nearby acceptor.

Assay [2] has as its target T2, CDK4/Cyclin D1 (Homo sapiens, UniProt P11802).
T2 construct: purchased ProQinase; host or cells: insect cell
Briefly: CDK4/CyclinD1 Enzymatic Activity Assay (TR-FRET). As to conditions: ATP 2 mM, recombinant CDK4/Cyclin D1 1 nM, read-out: CDK4_D1 IC50. It counts as biochemical. As for the experimental part:
CDK4/CyclinD1 Enzymatic Activity Assay
as §1, with “Bio-One). CDK4/Cyclin D1” for “Bio-One). CDK9/Cyclin T1”, “complex CDK4/Cyclin D1,” for “complex CDK9/Cyclin T1,”, “mixing CDK4/CyclinD1” for “mixing CDK9/CyclinT1”, “ULight-4E-BP1 (100” for “ULight-4E-BP1 (50”, “ATP (2” for “ATP (1”

Assay [3] has as its system H929 cells. As to the kind of experiment: CellTiter-Glo Protocol (Proliferation). It counts as cell-based. As to conditions: Homo sapiens, NCI-H929, 24 hours, read-out: PROLIFERATION_CTG_H929 IC50. As for the experimental part:
CellTiter-Glo® Protocol (Proliferation)
Dispense 10 μL aliquot of prepared H929 cells (1:1 ratio of cells: Trypan Blue (#1450013, Bio-Rad)) onto cell counting slide (#145-0011, Bio-Rad) and obtain cell density and cell viability using a cell counter (TC20, Bio-Rad). Remove appropriate volume of resuspended cells from culture flask to accommodate 4000 cells/well at 10 μL/well. Transfer H929 cells to 50 mL conical (#430290, Corning). Spin down at 1000 rpm for 5 min. using a tabletop centrifuge (SPINCHRON 15, Beckman). Discard supernatant and resuspend cell pellet in modified RPMI 1640 (#10-040-CV, Corning) cell culture media containing 10% FBS (F2422-500ML, Sigma), sodium pyruvate (100 mM) (#25-000-CL, Corning), HEPES buffer (1M) (#25-060-CL, Corning) and glucose (200 g/L) (A24940-01, Gibco) to a cell density of 400,000 cells/mL. Dispense 10 μL of resuspended H929 cells per well in 384-well small volume TC treated plate (#784080, Greiner Bio-one) using standard cassette (#50950372, Thermo Scientific) on Multidrop Combi (#5840310, Thermo Scientific) in laminar flow cabinet. Dispense compounds onto plates using a digital liquid dispenser (D300E, Tecan). Incubate plates in humidified tissue culture incubator at 37° C. for 24 hours. Add 10 μL of prepared CellTiTer-Glo® detection buffer (G7570, Promega) to each well of 384-well plate using small tube cassette (#24073295, Thermo Scientific) on Combi multi-drop, incubate at RT for 30-60 min. Read plates with a microplate reader (PheraStar, BMG Labtech) using 384 well luminescence mode. See Table B (Proliferation_CTG_H929).
For orientation: ATP-based viability assays read luminescence as a measure of living cells.

The target in assay [4] is T3, CDK2/Cyclin A2 (Homo sapiens, UniProt P24941).
T3 construct: purchased ProQinase; host or cells: insect cell
As to the kind of experiment: CDK2/CyclinA2 Enzymatic Activity Assay (TR-FRET). It counts as biochemical. As to conditions: ATP 1 mM, recombinant CDK2/Cyclin A2 1 nM, read-out: CDK2_A2 IC50. As for the experimental part:
CDK2/CyclinA2 Enzymatic Activity Assay
as §1, with “(Greiner Bio-One). CDK2/Cyclin A2 catalyzed phosphorylation” for “(Greiner Bio-One). CDK9/Cyclin T1 catalyzed phosphorylation”, “protein complex CDK2/Cyclin A2, expressed from” for “protein complex CDK9/Cyclin T1, expressed from”, “by mixing CDK2/CyclinA2 (1 nM” for “by mixing CDK9/CyclinT1 (1 nM”, “20 minutes preincubation at” for “20 minutes of preincubation at”, “stopped by addition of” for “stopped by the addition of”

T1 sequence (P50750 whole entry): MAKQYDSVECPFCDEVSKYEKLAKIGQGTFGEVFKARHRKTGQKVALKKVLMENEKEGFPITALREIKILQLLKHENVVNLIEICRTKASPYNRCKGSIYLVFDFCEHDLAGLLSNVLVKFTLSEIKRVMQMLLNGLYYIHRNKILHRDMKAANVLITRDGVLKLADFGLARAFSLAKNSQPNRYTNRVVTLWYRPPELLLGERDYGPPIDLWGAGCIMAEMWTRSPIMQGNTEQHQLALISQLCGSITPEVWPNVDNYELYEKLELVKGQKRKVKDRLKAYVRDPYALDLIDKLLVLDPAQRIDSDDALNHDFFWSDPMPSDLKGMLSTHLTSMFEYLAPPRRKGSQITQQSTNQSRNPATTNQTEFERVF
T1 sequence (O60563 whole entry partner): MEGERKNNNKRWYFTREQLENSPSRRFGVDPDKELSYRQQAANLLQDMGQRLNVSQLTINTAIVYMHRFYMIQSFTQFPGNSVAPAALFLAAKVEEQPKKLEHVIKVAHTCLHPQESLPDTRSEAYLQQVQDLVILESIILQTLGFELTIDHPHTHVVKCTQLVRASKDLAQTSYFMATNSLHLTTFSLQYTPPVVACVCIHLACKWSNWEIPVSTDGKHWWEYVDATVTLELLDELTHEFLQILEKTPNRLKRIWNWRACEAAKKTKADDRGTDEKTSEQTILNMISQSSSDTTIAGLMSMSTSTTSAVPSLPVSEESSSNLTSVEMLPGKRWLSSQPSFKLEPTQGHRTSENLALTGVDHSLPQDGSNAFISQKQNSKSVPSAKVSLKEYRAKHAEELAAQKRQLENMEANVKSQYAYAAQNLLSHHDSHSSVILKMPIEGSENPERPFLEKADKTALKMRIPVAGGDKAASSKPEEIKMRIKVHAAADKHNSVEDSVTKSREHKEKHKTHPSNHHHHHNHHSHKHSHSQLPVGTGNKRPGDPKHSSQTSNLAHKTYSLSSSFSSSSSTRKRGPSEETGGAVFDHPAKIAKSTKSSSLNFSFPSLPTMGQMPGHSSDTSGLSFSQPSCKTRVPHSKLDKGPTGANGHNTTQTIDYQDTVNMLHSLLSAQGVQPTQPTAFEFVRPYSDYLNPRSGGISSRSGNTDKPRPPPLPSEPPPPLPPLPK
T2 sequence (P11802 whole entry): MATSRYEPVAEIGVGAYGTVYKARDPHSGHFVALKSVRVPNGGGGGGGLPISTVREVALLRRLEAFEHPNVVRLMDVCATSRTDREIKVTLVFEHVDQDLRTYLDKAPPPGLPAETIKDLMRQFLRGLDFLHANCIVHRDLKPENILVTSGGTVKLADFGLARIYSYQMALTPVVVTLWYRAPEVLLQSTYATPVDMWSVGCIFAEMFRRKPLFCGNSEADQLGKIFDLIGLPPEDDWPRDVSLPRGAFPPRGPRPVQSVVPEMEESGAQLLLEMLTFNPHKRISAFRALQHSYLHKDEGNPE
T2 sequence (P24385 whole entry partner): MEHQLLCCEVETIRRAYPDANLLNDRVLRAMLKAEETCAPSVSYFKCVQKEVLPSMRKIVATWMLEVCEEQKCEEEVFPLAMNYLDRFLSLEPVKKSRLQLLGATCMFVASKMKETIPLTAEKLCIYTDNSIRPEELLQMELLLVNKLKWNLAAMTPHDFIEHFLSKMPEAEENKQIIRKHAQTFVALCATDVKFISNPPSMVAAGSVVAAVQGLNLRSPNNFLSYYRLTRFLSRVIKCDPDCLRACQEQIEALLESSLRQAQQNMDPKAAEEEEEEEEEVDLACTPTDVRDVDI

As to `CC(=O)N[C@@H]1CCC[C@H](C(=O)Nc2cc(-c3cccc4c3CC(C)(C)O4)c(Cl)cn2)C1` [Example 14, (1S,3R)-3-acetamido-N-(5-chloro-4-(2,2-dimethyl-2,3-dihydrobenzofuran-4-yl)pyridin-2-yl)cyclohexane-1-carboxamide], the IC50 in assay [1] is < 20 nM; in assay [2] it was > 1000 nM; in assay [3], 200 to 1000 nM.

On to `CC(=O)N[C@@H]1CCC[C@H](C(=O)Nc2cc(-c3cccc4c3OCC(C)(C)N4)c(Cl)cn2)C1` [Example 9, (1S,3R)-3-acetamido-N-(5-chloro-4-(3,3-dimethyl-3,4-dihydro-2H-benzo[b][1,4]oxazin-8-yl)pyridin-2-yl)cyclohexane-1-carboxamide], for which the IC50 was < 20 nM in assay [1] and > 1000 nM in assay [2].

For the compound `CC(=O)N[C@@H]1CCC[C@H](C(=O)Nc2cc(-c3cccc4c3OCCN4)c(Cl)cn2)C1` [Example 4, (1S,3R)-3-acetamido-N-(5-chloro-4-(3,4-dihydro-2H-benzo[b][1,4]oxazin-8-yl)pyridin-2-yl)cyclohexane-1-carboxamide], the IC50 in assay [1] is < 20 nM; in assay [2], > 1000 nM; in assay [3], 20 to 200 nM.

On to `N#CCC(=O)N[C@@H]1CCC[C@H](C(=O)Nc2cc(-c3cccc4c3OCCN4)c(Cl)cn2)C1` [Example 10, (1S,3R)—N-(5-chloro-4-(3,4-dihydro-2H-benzo[b][1,4]oxazin-8-yl)pyridin-2-yl)-3-(2-cyanoacetamido)cyclohexane-1-carboxamide], for which the values for the IC50 in assay [1] and in assay [2] were < 20 nM and 20 to 200 nM, respectively.

On to `CC1COc2c(cc(F)cc2-c2cc(NC(=O)[C@H]3CCC[C@@H](NC(=O)CC#N)C3)ncc2Cl)N1` (stereo partly drawn) [Example 13, (1S,3R)—N-(5-chloro-4-(6-fluoro-3-methyl-3,4-dihydro-2H-benzo[b][1,4]oxazin-8-yl)pyridin-2-yl)-3-(2-cyanoacetamido)cyclohexane-1-carboxamide], for which the results for the IC50 in assay [1] and in assay [2] were < 20 nM and 20 to 200 nM, respectively.

With `CC1(C)COc2c(cccc2-c2cc(NC(=O)[C@H]3CCC[C@@H](NC(=O)CC#N)C3)ncc2Cl)N1` [Example 11, (1S,3R)—N-(5-chloro-4-(3,3-dimethyl-3,4-dihydro-2H-benzo[b][1,4]oxazin-8-yl)pyridin-2-yl)-3-(2-cyanoacetamido)cyclohexane-1-carboxamide], the IC50 in assay [1] is < 20 nM; in assay [2], > 1000 nM.

Take `CC(=O)N[C@@H]1CCC[C@H](C(=O)Nc2cc(-c3cccc4c3CCN4)c(Cl)cn2)C1` [Example 1, (1S,3R)-3-acetamido-N-(5-chloro-4-(indolin-4-yl)pyridin-2-yl)cyclohexane-1-carboxamide]: the IC50 was < 20 nM in assay [1], 200 to 1000 nM in assay [2] and 20 to 200 nM in assay [3].

Regarding `CC1(C)Cc2cccc(-c3cc(NC(=O)[C@H]4CCC[C@@H](NC(=O)CC#N)C4)ncc3Cl)c2O1` [Example 15, (1S,3R)—N-(5-chloro-4-(2,2-dimethyl-2,3-dihydrobenzofuran-7-yl)pyridin-2-yl)-3-(2-cyanoacetamido)cyclohexane-1-carboxamide], the IC50 in assay [1] is < 20 nM; in assay [2] it was > 1000 nM.

On to `Cc1cnc(NC(=O)[C@H]2CCC[C@@H](NC(=O)CC#N)C2)cc1-c1cccc2c1CC(C)(C)N2` [Example 6, (1S,3R)-3-(2-cyanoacetamido)-N-(4-(2,2-dimethylindolin-4-yl)-5-methylpyridin-2-yl)cyclohexane-1-carboxamide], for which the IC50 was < 20 nM in assay [1] and > 1000 nM in assay [2].

In the case of `CC(=O)N[C@@H]1CCC[C@H](C(=O)Nc2cc(-c3cccc4c3CC(C)N4)c(Cl)cn2)C1` (stereo partly drawn) [Example 2, (1S,3R)-3-acetamido-N-(5-chloro-4-(2-methylindolin-4-yl)pyridin-2-yl)cyclohexane-1-carboxamide], the IC50 in assay [1] is < 20 nM; in assay [2], 200 to 1000 nM; in assay [3], 20 to 200 nM.

For the compound `CC(=O)N[C@@H]1CCC[C@H](C(=O)Nc2cc(-c3cccc4c3CCCN4)c(Cl)cn2)C1` [Example 3, (1S,3R)-3-acetamido-N-(5-chloro-4-(1,2,3,4-tetrahydroquinolin-5-yl)pyridin-2-yl)cyclohexane-1-carboxamide], the values for the IC50 in assay [1], in assay [2] and in assay [3] were 20 to 200 nM, > 1000 nM and 20 to 200 nM, respectively.

As for `N#CCC(=O)N[C@@H]1CCC[C@H](C(=O)Nc2cc(-c3cc(F)cc4c3OCCN4)c(Cl)cn2)C1` [Example 12, (1S,3R)—N-(5-chloro-4-(6-fluoro-3,4-dihydro-2H-benzo[b][1,4]oxazin-8-yl)pyridin-2-yl)-3-(2-cyanoacetamido)cyclohexane-1-carboxamide], the IC50 in assay [4] is 200 to 1000 nM; in assay [1], < 20 nM; in assay [2], 20 to 200 nM.
